In EP2440195B1, “USE OF ALKYLGLYCEROLS FOR PREPARING DRUGS” (Université de Rennes I, priority 2009, dated 2010):

Tests used:
[1] = system: cellules du carcinome pulmonaire de Lewis; experiment: Survival and tumour growth in mice grafted with Lewis lung carcinoma, five diets (alkylglycerol 18:1 and/or DFMO, normal or polyamine-deficient diet); type: in vivo, souris C57BL/6
Source text: Cette figure représente les variations de volume de tumeurs (en mm^3, indiqués en ordonnées) en fonction du nombre de jours (indiqués en abscisses) écoulés après la greffe de ladite tumeur chez des souris C57BL/6. Les souris sont greffées avec une tumeur solide de cellules du carcinome pulmonaire de Lewis.
(§1) Cette figure représente le pourcentage de survie (en ordonnées) de souris C57BL/6, en fonction du nombre de jours (en abscisses) écoulés après la greffe d'une tumeur solide de cellules du carcinome pulmonaire de Lewis. La représentation utilisée est sous forme de graphique de Kaplan-Meier, le test statistique Log-Rank est utilisé pour la comparaison de la survie (fiabilité p < 0,0001).
(§2) Des souris femelles C57BL/6, âgées de 8 semaines et pesant 20g (élevage Janvier, Le Genest St Isle, France) sont acclimatées 1 semaine avant le début de l'étude. La manipulation des animaux est réalisée en accord avec les directives éthiques pour l'expérimentation et selon les recommandations de l'Association Européenne de Recherche Biomédicale.
(§3) Les cellules de carcinome pulmonaire de Lewis (3LL) ont été obtenues auprès de l'ECACC (European collection of cell cultures) et greffées par injection intramusculaire dans les pattes postérieures de souris femelles C57BL/6 selon la méthode décrite précédemment (Hergueux J. et al., Exp. Cell Biol., 1983, 51(4), 181-191) pour produire des cellules tumorales. Après 20 jours, les cellules tumorales sont collectées et dispersées dans du PBS, comptées et diluées pour atteindre 1 ×10^6 cellules / 100 µL, avant d'être greffées dans les souris.
Le modèle animal (souris C57BL/5) et le modèle tumoral (carcinome de Lewis) sont décrits précédemment. Les souris sont greffées avec […] tumorales, par injection intramusculaire. […]

[2] = system: cellules du carcinome pulmonaire de Lewis; experiment: Survival study by diet (PDD or PCD) and alkylglycerol 18:1 or olive oil, Lewis lung carcinoma graft; type: in vivo, souris C57BL/6; conditions: for différence dans la valeur de survie médiane: Log-Rank; for valeur médiane de survie: 25 mice per group
Source text: as §1, with “souris,” for “souris C57BL/6,”, “Lewis. Les souris sont réparties en 2 groupes de 25 individus. Les deux groupes sont alimentés avec des régimes alimentaires différents. Les valeurs médianes de survie sont observées.” for “Lewis.”, “survie.” for “survie (fiabilité p < 0,0001).”
as §2, §3
Au premier jour de l'expérience, 0,1 ×10^6 cellules tumorales sont greffées par injection intramusculaire, à chaque souris. Les souris greffées sont réparties aléatoirement dans les cages par groupe de 25 individus.
Quatre groupes sont constitués, chacun comprenant 25 souris greffées avec des cellules tumorales. Les souris sont réparties dans 8 cages avec 12 à 13 individus par cage. Chaque groupe de souris comprend les individus de deux cages. Chaque groupe de souris est alimenté avec un régime alimentaire différent. La consommation d'aliments est suivie deux fois par semaine, et le nombre de décès deux fois par jour.
Les quatre types de régime alimentaire sont : • régime 1, aliment synthétique appauvri en polyamines (PDD) et enrichi en huile d'olive (20 g / kg d'aliment), • régime 2, aliment synthétique appauvri en polyamines (PDD) et enrichi en alkylglycérol 18 :1 (25 mg par jour et par souris), • régime 3, aliment synthétique contenant des polyamines (PCD), enrichi en huile d'olive (20 g / kg d'aliment), • régime 4, aliment synthétique contenant des polyamines (PCD), enrichi en alkylglycérol 18 :1 (25 mg par jour et par souris).

[3] = system: carcinome de Lewis; experiment: Antitumour agent Example 2: chemotherapy with PCD/PDD diets, DFMO and alkylglycerol C18:1, Lewis carcinoma graft; type: in vivo, souris C57BL/5
Procedure: Le modèle animal (souris C57BL/5) et le modèle tumoral (carcinome de Lewis) sont décrits précédemment. Les souris sont greffées avec 0,1 ×10^6 cellules tumorales, par injection intramusculaire.
Quatres ensembles d'animaux sont constitués : A, B, C et D. • L'ensemble A est traité avec une monochimiothérapie a forte dose (cyclophosphamide, 90 mg / kg / semaine). • L'ensemble B est traité avec une monochimiothérapie a faible dose (cyclophosphamide, 20 mg / kg / semaine). • L'ensemble C est traité avec une polychimiothérapie combinant trois agents antitumoraux (methotrexate, cyclophosphamide, vindesine). Le premier jour de l'expérience l'ensemble C est traité avec le methotrexate (1,7 mg / kg). Le second jour de l'expérience l'ensemble C est traité avec le cyclophosphamide (20 mg / kg). Le troisième jour de l'expérience l'ensemble C est traité avec la vindesine (0,25 mg/kg). • L'ensemble D est traité avec une solution saline (NaCl, 0,14 M), il s'agit d'un groupe témoin.
Pour chacun des 4 ensembles, les souris sont réparties en 8 groupes (soit 32 groupes au total) en fonction de leurs alimentations : • Le groupe 1a : aliment synthétique contenant des polyamines (PCD), • le groupe 1b : aliment synthétique contenant des polyamines (PCD), et avec une eau contenant du DFMO, • le groupe 1c : aliment synthétique contenant des polyamines (PCD), enrichi en alkylglycérol, • le groupe 1d : aliment synthétique contenant des polyamines (PCD), enrichi en alkylglycérol, et avec une eau contenant du DFMO, • le groupe 2a : aliment synthétique appauvri en polyamines (PDD), • le groupe 2b : aliment synthétique appauvri en polyamines (PDD), et avec une eau contenant du DFMO, • le groupe 2c : aliment synthétique appauvri en polyamines (PDD), enrichi en alkylglycérol, • le groupe 2d : aliment synthétique appauvri en polyamines (PDD), enrichi en alkylglycérol, et avec une eau contenant du DFMO,
L'alkylglycérol est le C 18 :1 (alcool sélachylique) et est mélangé à l'alimentation des souris (25 mg par jour et par souris). Le DFMO est mélangé à l'eau de boisson des souris (30 g/L). […]

[4] = system: néo vascularisation induite par le Matrigel; experiment: Matrigel plug angiogenesis test (haemoglobin content of the gel, VEGF-induced); type: in vivo, souris C57BL/5; conditions: PDD
Procedure: Cette figure représente le pourcentage de concentration en hémoglobine dans du Matrigel (BD Biosciences) (en ordonnées), 10 jours après injection dudit Matrigel (500µL) à des souris.
La colonne du centre représente les souris témoins ayant été traitées avec du VEGF. Ces souris ont été greffées avec du Matrigel contenant du VEGF (50 ng/mL). Le pourcentage de concentration en hémoglobine est fixé arbitrairement à 100% et sert de référence pour quantifier les pourcentages des deux autres groupes.
La néo vascularisation induite par le Matrigel est dosée suivant une modification de la méthode de Kimura et al. (Cancer Sci. 2004, 95(9), 758-764). En résumé, tous les animaux ont été traités par injection sous-cutanée de Matrigel (500µL) contenant 32 unités/mL d'héparine et éventuellement 50 ng/mL de VEGF (Vascular Endothelial Growth Factor).
Le modèle animal (souris C57BL/5) et le Matrigel sont décrits précédemment.
Le Matrigel est injecté en sous-cutané (500 µL par injection) à trois groupes de 6 souris : • Groupe 1 : Matrigel sans VEGF, régime alimentaire appauvri en polyamines (PDD). • Groupe 2 : Matrigel avec VEGF, régime alimentaire appauvri en polyamines (PDD). • Groupe 3 : Matrigel avec VEGF, régime alimentaire appauvri en polyamines (PDD), enrichi en alkylglycérol 18 :1 (25 mg par jour et par souris)
Dix jours après injection les souris sont euthanasiées et le Matrigel est prélevé, pesé, photographié. Le Matrigel est ensuite dissocié mécaniquement dans du PBS, homogénéisé puis est mis dans une solution de Drabkin's pour le dosage de l'hémoglobine. Les solutions sont déposées dans des puits d'une plaque 96 puits contenant une solution de Drabkin's et lecture dans un lecteur de plaque à 540 nm.
La concentration en hémoglobine observe dans le Matrigel du groupe 2 est fixé arbitrairement à 100% et sert de référence lors des comparaisons avec les résultats obtenus avec les groupes 1 et 3 (Figure 8).

[5] = régime appauvri en polyamines (PDD), alkylglycérol 18 :1 25 mg / souris / jour and/or DFMO 30 g / L in drinking water, DFMO alone given with huile d'olive
[6] = cyclophosphamide à faible dose (20 mg / kg / semaine), animaux PDD + DFMO (30 g/L)

| Structure (SMILES) | valeur médiane de survie [1, 5] [jours] | valeur médiane de survie ([1]; régime contenant un taux normal de polyamines (PCD), alkylglycérol 18 :1 25 mg / souris / jour, days after tumour graft) [jours] | différence dans la valeur de survie médiane ([2]; C18 :1 (PCD, régime 4) vs huile d'olive (PCD, régime 3), Figure 4) | différence dans la valeur de survie médiane ([2]; C18 :1 (PDD, régime 2) vs C18 :1 (PCD, régime 4), Figure 7) | différence dans la valeur de survie médiane ([2]; C18 :1 (PDD, régime 2) vs huile d'olive (PCD, régime 3), Figure 5) | différence dans la valeur de survie médiane ([2]; C18 :1 (PDD, régime 2) vs huile d'olive (PDD, régime 1), Figure 3) | influence sur la durée médiane de survie ([2]; overall conclusion of the four-diet survival study) | valeur médiane de survie ([2]; régime appauvri en polyamines (PDD, 10 µg / kg d'aliment), alkylglycérol 18 :1 25 mg / souris / jour or huile d'olive) [jours] | valeur médiane de survie ([2]; régime contenant des polyamines (PCD, 128 mg / kg d'aliment), alkylglycérol 18 :1 25 mg / souris / jour) [jours] | effect of C18 :1 intake on the benefit of chemotherapy ([3]; C18 :1 25 mg par jour et par souris added to chemotherapy + PDD + DFMO) | effet anti angiogénique ([4]; Matrigel with VEGF) | réduction de l'angiogénèse ([4]; Matrigel with VEGF, C18 :1 25 mg par jour et par souris, vs VEGF group) [%] | concentration en hémoglobine dans le Matrigel ([4]; relative to VEGF group (50 ng/mL) fixed at 100%, 10 days after injection, alkylglycérol 18 :1 25 mg par jour et par souris, 6 mice) | dissémination métastatique pulmonaire [3, 6] | progression de la greffe tumorale [3, 6] |
| --- | --- | --- | --- | --- | --- | --- | --- | --- | --- | --- | --- | --- | --- | --- | --- |
| NCCCC(N)(C(=O)O)C(F)F (racemic) [DFMO, D,L-2-(difluorométhyl)ornithine, reference compound] | 35 |  |  |  |  |  |  |  |  |  |  |  |  |  |  |
| CCCCCCCC/C=C\CCCCCCCCOCC(O)CO (stereo not shown) [alkylglycérol 18 :1, alcool sélachylique] | 30 | 31 | Aucune différence significative | Aucune différence significative | Aucune différence significative | Aucune différence significative | n'a pas d'influence significative | 26 | 26 | amplifie les effets bénéfiques de la chimiothérapie | observé | ~40 | 58,56% |  |  |
| O=P1(N(CCCl)CCCl)NCCCO1 (stereo not shown) [cyclophosphamide] |  |  |  |  |  |  |  |  |  |  |  |  |  | efficace | efficace |
